Data set [1] deals with T1, Muscarinic acetylcholine receptor M4 (Homo sapiens) (UniProt P08173).
T1 sequence (whole entry): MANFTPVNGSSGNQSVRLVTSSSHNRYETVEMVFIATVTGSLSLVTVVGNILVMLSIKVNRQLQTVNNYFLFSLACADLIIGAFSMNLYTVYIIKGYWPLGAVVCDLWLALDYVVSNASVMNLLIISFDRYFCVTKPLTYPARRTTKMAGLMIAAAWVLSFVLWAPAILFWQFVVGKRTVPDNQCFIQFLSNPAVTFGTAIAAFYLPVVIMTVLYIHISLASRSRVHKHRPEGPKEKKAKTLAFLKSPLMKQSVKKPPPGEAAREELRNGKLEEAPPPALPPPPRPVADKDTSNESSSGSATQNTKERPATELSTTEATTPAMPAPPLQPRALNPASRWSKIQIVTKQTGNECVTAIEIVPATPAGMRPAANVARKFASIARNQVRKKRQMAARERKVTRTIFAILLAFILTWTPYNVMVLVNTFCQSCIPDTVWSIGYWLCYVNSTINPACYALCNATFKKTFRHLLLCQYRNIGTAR
Briefly: Agonist activity at human muscarinic M4 receptor expressed in BHK-21 cells coexpressing Galpha16 subunit assessed as increase of acetylcholine-induced calcium flux at 10 uM by FLIPR assay relative to acetylcholine. In kind it is functional, cell-based. For orientation: Calcium assays in cells follow changes in intracellular calcium, usually with a dye or a luminescent sensor.

Data set [2] has as its system Hepatocyte. Kind of data set: Intrinsic clearance in rat hepatocytes at 1 uM after up to 60 mins by LC/MS-MS analysis. The format is ADME, cell-based, Liver. As to conditions: 1 h.
Data set [3] in a line: Oral bioavailability in rat plasma at 2 mg/kg. In kind it is ADME, organism-based.
For data set [4], the system named is Mus musculus. Kind of data set: Reversal of 60 seconds delay-induced memory decay in C57Bl/6J mouse assessed as positive alteration at 10 to 20 mg/kg, sc for 1 week by Y-maze test. The format is functional, organism-based.
Data set [5] concerns the target Glucocorticoid receptor (Homo sapiens, UniProt P04150). Kind of data set: Binding affinity to human glucocorticoid receptor by radioligand displacement assay. On the technique in general: In a radioligand displacement assay an active substance lowers the binding of a labelled ligand.
The target in data set [6] is T2, Muscarinic acetylcholine receptor M1 (Homo sapiens, UniProt P11229).
T2 sequence (P11229 whole entry): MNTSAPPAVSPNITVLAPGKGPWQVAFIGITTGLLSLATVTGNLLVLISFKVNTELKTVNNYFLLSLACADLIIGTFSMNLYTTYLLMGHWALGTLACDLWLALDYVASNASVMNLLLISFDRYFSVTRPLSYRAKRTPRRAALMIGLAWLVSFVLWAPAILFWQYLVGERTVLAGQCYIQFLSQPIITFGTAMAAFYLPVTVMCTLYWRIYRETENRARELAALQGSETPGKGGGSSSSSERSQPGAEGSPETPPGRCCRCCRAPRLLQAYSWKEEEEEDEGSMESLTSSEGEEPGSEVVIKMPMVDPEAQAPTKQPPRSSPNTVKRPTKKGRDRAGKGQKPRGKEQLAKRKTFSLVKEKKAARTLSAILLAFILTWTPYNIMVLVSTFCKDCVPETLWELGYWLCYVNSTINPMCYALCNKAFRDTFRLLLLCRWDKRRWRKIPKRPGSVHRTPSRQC
Briefly: Binding affinity to human muscarinic M1 receptor by radioligand displacement assay.

Data set [7] has as its target Gastrin/cholecystokinin type B receptor (Homo sapiens, UniProt P32239). Kind of data set: Binding affinity to human CCK2 receptor by radioligand displacement assay.
For data set [8], the target named is T3, Muscarinic acetylcholine receptor M5 (Homo sapiens, UniProt P08912).
T3 sequence (P08912 whole entry): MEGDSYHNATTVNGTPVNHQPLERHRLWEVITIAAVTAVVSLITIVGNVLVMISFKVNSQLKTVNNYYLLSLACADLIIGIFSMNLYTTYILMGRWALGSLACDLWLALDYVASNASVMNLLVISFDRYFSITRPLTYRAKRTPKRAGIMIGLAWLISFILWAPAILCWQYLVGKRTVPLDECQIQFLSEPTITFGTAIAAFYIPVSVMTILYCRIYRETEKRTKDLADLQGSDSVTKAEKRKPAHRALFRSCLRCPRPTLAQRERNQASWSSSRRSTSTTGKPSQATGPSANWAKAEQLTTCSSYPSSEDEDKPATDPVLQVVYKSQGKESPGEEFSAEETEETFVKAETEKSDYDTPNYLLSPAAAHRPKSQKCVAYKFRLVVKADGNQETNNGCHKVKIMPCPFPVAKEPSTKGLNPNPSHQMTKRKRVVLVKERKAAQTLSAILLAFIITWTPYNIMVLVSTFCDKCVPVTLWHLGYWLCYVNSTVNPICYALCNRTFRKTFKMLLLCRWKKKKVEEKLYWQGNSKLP
Kind of data set: Binding affinity to human muscarinic M5 receptor by radioligand displacement assay.

The target of data set [9] is Substance-P receptor (Homo sapiens, UniProt P25103). Briefly: Binding affinity to human NK1 receptor by radioligand displacement assay.
Sequence of Substance-P receptor (P25103 whole entry): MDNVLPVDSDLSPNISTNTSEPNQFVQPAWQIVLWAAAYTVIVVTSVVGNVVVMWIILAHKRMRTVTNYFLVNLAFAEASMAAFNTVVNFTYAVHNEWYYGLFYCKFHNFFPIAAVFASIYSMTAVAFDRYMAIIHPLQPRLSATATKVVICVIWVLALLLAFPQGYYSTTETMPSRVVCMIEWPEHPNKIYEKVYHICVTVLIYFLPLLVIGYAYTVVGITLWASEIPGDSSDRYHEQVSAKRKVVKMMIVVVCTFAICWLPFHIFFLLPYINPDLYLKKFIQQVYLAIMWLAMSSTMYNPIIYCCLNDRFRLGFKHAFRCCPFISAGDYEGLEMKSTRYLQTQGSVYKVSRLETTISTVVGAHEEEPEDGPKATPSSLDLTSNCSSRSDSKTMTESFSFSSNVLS

Calls of active or inactive are those of the source. No cut-off for these calls is given here.

Sequence of Gastrin/cholecystokinin type B receptor (P32239 whole entry): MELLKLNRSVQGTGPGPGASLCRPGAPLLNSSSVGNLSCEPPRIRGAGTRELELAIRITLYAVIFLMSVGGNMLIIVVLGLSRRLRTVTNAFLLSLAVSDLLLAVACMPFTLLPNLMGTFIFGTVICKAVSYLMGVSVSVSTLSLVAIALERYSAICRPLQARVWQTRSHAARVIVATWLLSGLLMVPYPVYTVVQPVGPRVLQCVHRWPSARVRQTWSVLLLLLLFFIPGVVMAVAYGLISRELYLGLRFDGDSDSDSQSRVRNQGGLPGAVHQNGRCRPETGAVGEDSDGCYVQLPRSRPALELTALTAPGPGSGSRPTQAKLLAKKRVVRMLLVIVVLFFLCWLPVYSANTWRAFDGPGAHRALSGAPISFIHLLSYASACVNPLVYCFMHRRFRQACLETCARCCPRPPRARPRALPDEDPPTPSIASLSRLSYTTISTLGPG
Sequence of Glucocorticoid receptor (P04150 whole entry): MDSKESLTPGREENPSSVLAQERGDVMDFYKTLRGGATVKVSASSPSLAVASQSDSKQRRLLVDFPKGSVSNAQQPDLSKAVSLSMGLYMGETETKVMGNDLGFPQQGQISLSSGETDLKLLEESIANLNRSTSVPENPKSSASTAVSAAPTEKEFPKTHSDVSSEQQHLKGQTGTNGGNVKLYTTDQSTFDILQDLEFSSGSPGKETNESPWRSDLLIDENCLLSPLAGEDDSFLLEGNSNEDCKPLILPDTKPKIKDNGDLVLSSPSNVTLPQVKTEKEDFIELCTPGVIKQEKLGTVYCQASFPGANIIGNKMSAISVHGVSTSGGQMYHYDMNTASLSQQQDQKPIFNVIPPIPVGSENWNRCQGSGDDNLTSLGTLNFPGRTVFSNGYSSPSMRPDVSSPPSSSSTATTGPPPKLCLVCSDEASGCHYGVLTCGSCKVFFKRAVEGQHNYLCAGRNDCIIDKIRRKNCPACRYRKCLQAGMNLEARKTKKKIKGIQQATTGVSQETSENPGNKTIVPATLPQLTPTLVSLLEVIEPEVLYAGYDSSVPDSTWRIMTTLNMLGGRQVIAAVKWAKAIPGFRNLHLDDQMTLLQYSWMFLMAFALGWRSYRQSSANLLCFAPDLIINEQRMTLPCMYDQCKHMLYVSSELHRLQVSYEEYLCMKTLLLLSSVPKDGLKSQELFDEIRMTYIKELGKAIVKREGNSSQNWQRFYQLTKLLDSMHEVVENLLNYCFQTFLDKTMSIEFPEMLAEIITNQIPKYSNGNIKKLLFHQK

In the case of `O=C(Cc1ccccc1)NC1CCN(CCCN2C(=O)COc3ccccc32)CC1`, the Emax in data set [1] is 6%. The molecule further displayed a CL in data set [2] of 100 mL/min. Moreover, the bioavailability in data set [3] came to 4%. For the same molecule, the outcome in data set [4] was Active. For the same molecule, the Ki in data set [5], in data set [6], in data set [7], in [8] and in data set [9] was at least 1000 nM in each case.

In general, Emax refers to the maximal effect, on the per cent scale that the assay sets. What is called bioavailability is the share of a dose that reaches the circulation, judged against a reference dose that is usually intravenous. The low end stands for little systemic uptake, the high end for much systemic uptake. For orientation: Ki means the equilibrium dissociation constant of an inhibitor or competing ligand from its target. The low end stands for tighter binding, the high end for weaker binding.

For the origin of these results see ChEMBL document CHEMBL1240489, “Discovery of N-{1-[3-(3-oxo-2,3-dihydrobenzo[1,4]oxazin-4-yl)propyl]piperidin-4-yl}-2-phenylacetamide (Lu AE51090): an allosteric muscarinic M1 receptor agonist with unprecedented selectivity and procognitive potential” (J Med Chem, 2010).
